# Laboratory results as given in patent US20260007681A1, “INDOLE DERIVATIVES AS ESTROGEN RECEPTOR DEGRADERS” (REGENTS OF THE UNIVERSITY OF MICHIGAN, priority 2022, published 2026).
# Tests used:
# CRBN/DDB1 = CRBN/DDB1 (Homo sapiens (Human), UniProt Q96SW2); assay type: binding; details: His tagged CRBN+DDB-DLS7+CXU4, Cy5-labeled Thalidomide probe, one hour incubation; read-out: CRBN HTRF IC50
# Procedure: The binding potency was determined using H-TRF assay technology (Perkin Elmer). Compounds were serially diluted in DMSO and 0.2 μL volume was transferred to white 384-well plate.
# ER in MCF-7 cells = ER in MCF-7 cells (Homo sapiens (Human), UniProt P03372); test: In-cell western (ICW) ER degradation assay in MCF-7 cells (Compounds A1-A70); assay type: cell-based; details: MCF-7 cells, 16 hrs treatment; for DC50: ER degradation, 0.02 to 300 nM, read-out: MCF7 ICW DC50; for Dmax: MCF7, maximal ER degradation, read-out: MCF7 ICW Dmax (%)
# Chain of ER in MCF-7 cells (P03372 whole entry): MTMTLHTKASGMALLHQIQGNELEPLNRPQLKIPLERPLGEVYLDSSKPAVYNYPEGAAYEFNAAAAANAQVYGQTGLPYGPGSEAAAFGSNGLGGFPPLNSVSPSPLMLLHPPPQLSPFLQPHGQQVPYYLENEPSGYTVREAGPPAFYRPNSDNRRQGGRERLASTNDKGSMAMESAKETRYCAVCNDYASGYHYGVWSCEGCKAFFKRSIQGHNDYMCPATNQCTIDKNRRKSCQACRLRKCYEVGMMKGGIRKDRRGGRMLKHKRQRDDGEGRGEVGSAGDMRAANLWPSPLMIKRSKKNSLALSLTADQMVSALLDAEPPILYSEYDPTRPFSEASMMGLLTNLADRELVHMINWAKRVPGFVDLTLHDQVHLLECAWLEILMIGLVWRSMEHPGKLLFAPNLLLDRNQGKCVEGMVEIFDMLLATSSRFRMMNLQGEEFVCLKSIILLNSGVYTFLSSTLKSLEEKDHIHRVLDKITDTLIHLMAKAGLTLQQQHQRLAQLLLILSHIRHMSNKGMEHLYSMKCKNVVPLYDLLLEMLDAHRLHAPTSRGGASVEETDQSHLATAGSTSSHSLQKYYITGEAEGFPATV
# Procedure: (§1) ERa degradative activity of compounds can be assessed in MCF-7 and T47D Cells. MCF-7 and T47D cell are seeded and are subsequently treated with the compounds at certain concentrations (e.g., 0.02 to 300 nM). DMSO can be used as vehicle control. Cells are fixed and are blocked with Intercept (PBS) Blocking Buffer (e.g., Li—COR, Odyssey Blocking Buffer), and are stained with ER (e.g., 1:500, Cell signaling) primary antibody for overnight at cold room. Secondary Antibody (e.g., IRDye 800CW Goat anti-Rabbit IgG) and CellTag 700 Stain are added in Intercept (PBS) Blocking Buffer. Finally, cell plate is placed in incubator to dry. Image and signal are captured on Odyssey® DLx Imaging System.
# (§2) Day 3: After 16 hrs of compounds treatment, cells were fixed by 4% PFA and permeabilized with elution buffer (0.1% Triton X-100 in 1% PBS Solution). Subsequently, cells were blocked with Intercept (PBS) Blocking Buffer (Li—COR, Odyssey Blocking Buffer), and were stained with ER (1:500, Cell signaling) primary antibody for overnight at cold room.
# (§3) Day 4: Remove the buffer, add IRDye 800CW Goat anti-Rabbit IgG Secondary Antibody (1:2000) and CellTag 700 Stain (1:500) in Intercept (PBS) Blocking Buffer. Finally, cell plate is placed in incubator to dry. Image and signal were captured on Odyssey® DLx Imaging System.
# ER in T47D cells = ER in T47D cells (Homo sapiens (Human), UniProt P03372); test: In-cell western (ICW) ER degradation assay in T47D cells (Compounds A1-A70); assay type: cell-based; details: T47D cells, 16 hrs treatment; for DC50: ER degradation, 0.02 to 300 nM; for Dmax: T47D, maximal ER degradation, read-out: T47D ICW Dmax (%)
# Chain of ER in T47D cells (P03372 whole entry): as above
# Procedure: as §1, §2, §3
# Chain of CRBN/DDB1 (Q96SW2 whole entry): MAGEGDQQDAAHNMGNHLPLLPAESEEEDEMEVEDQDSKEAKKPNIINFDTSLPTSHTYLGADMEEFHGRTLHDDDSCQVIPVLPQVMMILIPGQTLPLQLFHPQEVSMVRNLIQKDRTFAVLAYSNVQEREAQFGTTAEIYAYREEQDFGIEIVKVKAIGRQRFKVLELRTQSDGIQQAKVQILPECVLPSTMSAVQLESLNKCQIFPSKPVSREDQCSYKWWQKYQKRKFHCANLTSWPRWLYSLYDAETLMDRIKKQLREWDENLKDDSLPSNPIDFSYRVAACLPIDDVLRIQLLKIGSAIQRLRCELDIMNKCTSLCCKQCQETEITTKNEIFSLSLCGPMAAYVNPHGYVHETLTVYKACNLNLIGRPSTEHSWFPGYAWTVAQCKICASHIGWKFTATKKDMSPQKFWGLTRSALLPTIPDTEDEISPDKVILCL
# Chain of CRBN/DDB1 (Q16531 whole entry partner): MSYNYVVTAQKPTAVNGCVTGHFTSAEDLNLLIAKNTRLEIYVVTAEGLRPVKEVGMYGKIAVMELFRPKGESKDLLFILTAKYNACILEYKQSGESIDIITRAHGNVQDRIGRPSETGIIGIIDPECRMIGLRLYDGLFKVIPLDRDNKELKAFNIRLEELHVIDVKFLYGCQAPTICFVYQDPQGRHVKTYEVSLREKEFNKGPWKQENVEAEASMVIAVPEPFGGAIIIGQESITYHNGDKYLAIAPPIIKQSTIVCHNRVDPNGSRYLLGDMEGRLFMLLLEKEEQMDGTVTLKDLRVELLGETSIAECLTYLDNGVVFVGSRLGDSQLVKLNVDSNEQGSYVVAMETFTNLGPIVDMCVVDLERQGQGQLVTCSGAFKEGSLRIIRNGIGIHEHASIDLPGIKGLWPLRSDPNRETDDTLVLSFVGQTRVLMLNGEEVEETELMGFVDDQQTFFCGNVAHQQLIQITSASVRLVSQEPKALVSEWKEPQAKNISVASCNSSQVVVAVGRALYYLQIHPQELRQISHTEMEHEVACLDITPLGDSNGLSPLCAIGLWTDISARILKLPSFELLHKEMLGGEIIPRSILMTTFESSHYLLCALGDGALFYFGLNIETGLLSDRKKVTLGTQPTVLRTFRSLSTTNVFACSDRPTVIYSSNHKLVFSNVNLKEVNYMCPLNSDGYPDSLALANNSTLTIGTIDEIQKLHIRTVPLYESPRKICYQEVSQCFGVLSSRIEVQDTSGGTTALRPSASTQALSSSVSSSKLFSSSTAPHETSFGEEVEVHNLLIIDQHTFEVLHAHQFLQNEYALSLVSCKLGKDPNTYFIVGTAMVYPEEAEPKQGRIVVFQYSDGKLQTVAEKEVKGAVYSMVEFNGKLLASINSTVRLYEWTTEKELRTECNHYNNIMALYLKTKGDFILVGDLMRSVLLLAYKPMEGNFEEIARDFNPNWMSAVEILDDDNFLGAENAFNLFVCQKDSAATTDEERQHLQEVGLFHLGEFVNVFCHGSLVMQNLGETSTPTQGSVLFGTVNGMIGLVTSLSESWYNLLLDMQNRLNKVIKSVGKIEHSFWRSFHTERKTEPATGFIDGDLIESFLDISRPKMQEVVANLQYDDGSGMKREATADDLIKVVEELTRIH
Compound,IC50 (CRBN/DDB1),DC50 (ER in MCF-7 cells),Dmax (ER in MCF-7 cells),DC50 (ER in T47D cells),Dmax (ER in T47D cells)
"C[C@@H]1Cc2c([nH]c3ccccc23)[C@@H](c2cnc(N3CCC(CN4CCN5c6ccc7c(c6OC[C@@H]5C4)CN(C4CCC(=O)NC4=O)C7=O)CC3)nc2)N1CC(F)F (stereo partly drawn) [Compound A5, 3-((S)-7-((1-(5-((1R,3R)-2-(2,2-difluoroethyl)-3-methyl-2,3,4,9-tetrahydro-1H-pyrido[3,4-b]indol-1-yl)pyrimidin-2-yl)piperidin-4-yl)methyl)-1-oxo-1,3,5,5a,6,7,8,9-octahydro-2H-pyrazino[1′,2′:4,5]oxazino[2,3-e]isoindol-2-yl)piperidine-2,6-dione]",50 to 500 nM,1 to 10 nM,50 to 75%,–,–
"C[C@@H]1Cc2c([nH]c3ccccc23)[C@@H](c2cnc(N3CCC4(CCC(CN5CCN6c7cc8c(cc7OC[C@@H]6C5)C(=O)N([C@H]5CCC(=O)NC5=O)C8)CC4)CC3)nc2)N1CC(C)(C)F [Compound A9, (S)-3-((S)-3-((3-(5-((1R,3R)-2-(2-fluoro-2-methylpropyl)-3-methyl-2,3,4,9-tetrahydro-1H-pyrido[3,4-b]indol-1-yl)pyrimidin-2-yl)-3-azaspiro[5.5]undecan-9-yl)methyl)-8-oxo-1,2,3,4,4a,5,8,10-octahydro-9H-pyrazino[1′,2′:4,5][1,4]oxazino[2,3-f]isoindol-9-yl)piperidine-2,6-dione]",> 5000 nM,< 1 nM,25 to 50%,–,–
"C[C@@H]1Cc2c([nH]c3ccccc23)[C@@H](c2ccc(N3CCC4(CC3)CC(CN3CCN5c6cc7c(cc6OC[C@@H]5C3)C(=O)N([C@H]3CCC(=O)NC3=O)C7)C4)nc2)N1CC(F)F [Compound A11, (S)-3-((S)-3-((7-(5-((1R,3R)-2-(2,2-difluoroethyl)-3-methyl-2,3,4,9-tetrahydro-1H-pyrido[3,4-b]indol-1-yl)pyridin-2-yl)-7-azaspiro[3.5]nonan-2-yl)methyl)-8-oxo-1,2,3,4,4a,5,8,10-octahydro-9H-pyrazino[1′,2′:4,5][1,4]oxazino[2,3-f]isoindol-9-yl)piperidine-2,6-dione]",500 to 5000 nM,1 to 10 nM,50 to 75%,–,–
"CS(=O)(=O)N1CCc2c([nH]c3ccccc23)[C@H]1c1c(F)cc(N2CCC(CN3CCN4c5cc6c(cc5OC[C@@H]4C3)C(=O)N([C@H]3CCC(=O)NC3=O)C6)CC2)cc1F [Compound A17, (S)-3-((S)-3-((1-(3,5-difluoro-4-((R)-2-(methylsulfonyl)-2,3,4,9-tetrahydro-1H-pyrido[3,4-b]indol-1-yl)phenyl)piperidin-4-yl)methyl)-8-oxo-1,2,3,4,4a,5,8,10-octahydro-9H-pyrazino[1′,2′:4,5][1,4]oxazino[2,3-f]isoindol-9-yl)piperidine-2,6-dione]",> 5000 nM,–,–,–,–
"C[C@@H]1Cc2c([nH]c3ccccc23)[C@@H](c2cnc(OC3CC(C(=O)N4CCC(N5Cc6cc7c(cc6C5)C(=O)N(C5CCC(=O)NC5=O)C7=O)CC4)C3)nc2)N1CC(F)F (stereo partly drawn) [Compound A18, 6-(1-((1R,3r)-3-((5-((1R,3R)-2-(2,2-difluoroethyl)-3-methyl-2,3,4,9-tetrahydro-1H-pyrido[3,4-b]indol-1-yl)pyrimidin-2-yl)oxy)cyclobutane-1-carbonyl)piperidin-4-yl)-2-(2,6-dioxopiperidin-3-yl)-6,7-dihydropyrrolo[3,4-f]isoindole-1,3(2H,5H)-dione]",50 to 500 nM,–,–,–,–
"CS(=O)(=O)N1CCc2c([nH]c3ccccc23)[C@@H]1c1c(F)cc(N2CCC3(CCN(C(=O)CN4Cc5cc6c(cc5C4)C(=O)N(C4CCC(=O)NC4=O)C6=O)CC3)CC2)cc1F (stereo partly drawn) [Compound A20, 6-(2-(9-(3,5-difluoro-4-((S)-2-(methylsulfonyl)-2,3,4,9-tetrahydro-1H-pyrido[3,4-b]indol-1-yl)phenyl)-3,9-diazaspiro[5.5]undecan-3-yl)-2-oxoethyl)-2-(2,6-dioxopiperidin-3-yl)-6,7-dihydropyrrolo[3,4-f]isoindole-1,3(2H,5H)-dione]",> 5000 nM,–,–,–,–
"CS(=O)(=O)N1CCc2c([nH]c3ccccc23)[C@H]1c1c(F)cc(N2CCC3(CCN(C(=O)CN4Cc5cc6c(cc5C4)C(=O)N(C4CCC(=O)NC4=O)C6=O)CC3)CC2)cc1F (stereo partly drawn) [Compound A21, 6-(2-(9-(3,5-difluoro-4-((R)-2-(methylsulfonyl)-2,3,4,9-tetrahydro-1H-pyrido[3,4-b]indol-1-yl)phenyl)-3,9-diazaspiro[5.5]undecan-3-yl)-2-oxoethyl)-2-(2,6-dioxopiperidin-3-yl)-6,7-dihydropyrrolo[3,4-f]isoindole-1,3(2H,5H)-dione]",> 5000 nM,–,–,–,–
"C[C@@H]1Cc2c([nH]c3ccccc23)[C@@H](c2ccc(N3CCC4(CC3)CC(CN3CCN5c6ccc7c(c6OC[C@@H]5C3)CN([C@H]3CCC(=O)NC3=O)C7=O)C4)nc2)N1CC(F)F [Compound A24, (S)-3-((S)-7-((7-(5-((1R,3R)-2-(2,2-difluoroethyl)-3-methyl-2,3,4,9-tetrahydro-1H-pyrido[3,4-b]indol-1-yl)pyridin-2-yl)-7-azaspiro[3.5]nonan-2-yl)methyl)-1-oxo-1,3,5,5a,6,7,8,9-octahydro-2H-pyrazino[1′,2′:4,5][1,4]oxazino[2,3-e]isoindol-2-yl)piperidine-2,6-dione]",< 50 nM,10 to 100 nM,25 to 50%,–,–
"C[C@@H]1Cc2c([nH]c3ccccc23)[C@@H](c2cnc(N3CCC4(CC3)CC(CN3CCC5(CC3)COc3cc6c(cc35)CN(C3CCC(=O)NC3=O)C6=O)C4)nc2)N1CC(F)F (stereo partly drawn) [Compound A26, 3-(1′-((7-(5-((1R,3R)-2-(2,2-difluoroethyl)-3-methyl-2,3,4,9-tetrahydro-1H-pyrido[3,4-b]indol-1-yl)pyrimidin-2-yl)-7-azaspiro[3.5]nonan-2-yl)methyl)-7-oxo-5,7-dihydro-2H,6H-spiro[furo[2,3-f]isoindole-3,4′-piperidin]-6-yl)piperidine-2,6-dione]",500 to 5000 nM,–,–,–,–
"C[C@@H]1Cc2c([nH]c3ccccc23)[C@@H](c2cnc(N3CCN(CC4CCN(c5ccc(N6CCC(=O)NC6=O)cc5)CC4)CC3)nc2)N1CC(F)F [Compound A38, 1-(4-(4-((4-(5-((1R,3R)-2-(2,2-difluoroethyl)-3-methyl-2,3,4,9-tetrahydro-1H-pyrido[3,4-b]indol-1-yl)pyrimidin-2-yl)piperazin-1-yl)methyl)piperidin-1-yl)phenyl)dihydropyrimidine-2,4(1H,3H)-dione]",500 to 5000 nM,–,–,1 to 10 nM,< 25%
"COc1cc(N2CCC(CN3CCC(c4ccc(N[C@H]5CCC(=O)NC5=O)c(F)c4)CC3)CC2)ccc1[C@@H]1c2[nH]c3ccccc3c2C[C@@H](C)N1CC(F)F [Compound A40, (S)-3-((4-(1-((1-(4-((1R,3R)-2-(2,2-difluoroethyl)-3-methyl-2,3,4,9-tetrahydro-1H-pyrido[3,4-b]indol-1-yl)-3-methoxyphenyl)piperidin-4-yl)methyl)piperidin-4-yl)-2-fluorophenyl)amino)piperidine-2,6-dione]",> 5000 nM,–,–,< 1 nM,25 to 50%
"COc1cc(N2CCC(CN3CCN(c4ccc(NC5CCC(=O)NC5=O)c(F)c4)CC3)CC2)ccc1[C@@H]1c2[nH]c3ccccc3c2C[C@@H](C)N1CC(F)F (stereo partly drawn) [Compound A41, 3-((4-(4-((1-(4-((1R,3R)-2-(2,2-difluoroethyl)-3-methyl-2,3,4,9-tetrahydro-1H-pyrido[3,4-b]indol-1-yl)-3-methoxyphenyl)piperidin-4-yl)methyl)piperazin-1-yl)-2-fluorophenyl)amino)piperidine-2,6-dione]",500 to 5000 nM,–,–,10 to 100 nM,25 to 50%
"COc1cc(N2CCC(CN3CCN(c4ccc(C5CCC(=O)NC5=O)cc4)CC3)CC2)ccc1[C@@H]1c2[nH]c3ccccc3c2C[C@@H](C)N1CC(F)F (stereo partly drawn) [Compound A46, 3-(4-(4-((1-(4-((1R,3R)-2-(2,2-difluoroethyl)-3-methyl-2,3,4,9-tetrahydro-1H-pyrido[3,4-b]indol-1-yl)-3-methoxyphenyl)piperidin-4-yl)methyl)piperazin-1-yl)phenyl)piperidine-2,6-dione]",50 to 500 nM,–,–,< 1 nM,25 to 50%
"COc1cc(N2CCC(CN3CCN(c4cnc(C(=O)NC5CCC(=O)NC5=O)cc4OC)CC3)CC2)ccc1[C@@H]1c2[nH]c3ccccc3c2C[C@@H](C)N1CC(F)F (stereo partly drawn) [Compound A56, 5-(4-((1-(4-((1R,3R)-2-(2,2-difluoroethyl)-3-methyl-2,3,4,9-tetrahydro-1H-pyrido[3,4-b]indol-1-yl)-3-methoxyphenyl)piperidin-4-yl)methyl)piperazin-1-yl)-N-(2,6-dioxopiperidin-3-yl)-4-methoxypicolinamide]",> 5000 nM,< 1 nM,50 to 75%,–,–
